Here are results for one compound from US20260355239A1, “COMBINATION OF A T CELL THERAPY AND CONTINUOUS OR INTERMITTENT DGK INHIBITOR DOSING” (Juno Therapeutics, Inc., priority 2022, published 2026).

Data set [1] has as its system T cells. The data set can be described thus: T cell function and exhaustion of engineered T cells in presence of DGKi (summary of observations). The format is cell-based, human. From the text: In some aspects, the provided methods enhance or modulate proliferation and/or activity of T cell activity associated with administration of the T cell therapy (e.g. CAR-expressing T cells).
Thus, while in some cases agents that increase or potentiate T cell activity may drive the cells to an exhausted state, it is found herein that activity of such DGKi, e.g., Compound 17, to exert a potentiating effect on T cell activity is decoupled from T cell exhaustion. In some embodiments, the provided methods involving compound administration of such DGKi, e.g., Compound 17, is capable of potentiating activity of T cells and delaying, limiting, reducing, inhibiting or preventing exhaustion.
(§1) These observations were made using a chronic stimulation assay to render T cells (e.g. CAR T cells) hypofunctional (e.g. reduced cytolysis and IL-2 secretion). Using this model, engineered T cells (e.g. CAR T cells or eTCR T cells) were examined to assess impact of DGKi, such as Compound 17, on function of the engineered T cells when present during (concurrent) or following (rescue) exposure to conditions leading to a hypofunctional, exhaustive state.

The test system of data set [2] is A549.CD19 tumor spheroids. The data set can be described thus: Rescue treatment: cytolytic activity of chronically stimulated CAR-T cells, 3D spheroids, A549.CD19. The class given is cell-based, human. Conditions: day 9.
The test system of data set [3] is anti-CD19 CAR-T cells. The data set can be described thus: CAR-T cell phenotype after acute stimulation (flow cytometry). The format is cell-based, human. The source says:
T cell compositions containing T cells expressing an exemplary anti-CD19 CAR were generated from leukapheresis samples from two healthy human adult donors by a process that included immunoaffinity-based selection of T cells by separately selecting CD4+ and CD8+ cells from the samples, resulting in two compositions enriched for CD4+ and CD8+ cells, respectively, per donor. Cells of the enriched CD4+ and CD8+ compositions were separately activated with anti-CD3/anti-CD28 beads and subjected to lentiviral transduction with a vector encoding an anti-CD19 CAR. The anti-CD19 CAR contained an anti-CD19 single-chain variable fragment (scFv) derived from a murine antibody (variable region derived from FMC63), an immunoglobulin-derived spacer, a transmembrane domain derived from CD28, a costimulatory region derived from 4-1BB, and a CD3-zeta intracellular signaling domain. […]
Prior to use, the cryopreserved CD4+ and CD8+ CAR-engineered cell compositions were thawed and combined at approximately a 1:1 CD4:CD8 ratio for each donor to prepare a combined CD4+ CAR+ and CD8+ CAR+ T cell composition. The effects of treatment with Compound 17 at various concentrations (0.1 nM, 1 nM, 10 nM, 100 nM, or 1000 nM) added at day 0 during stimulation of the combined CAR-T cell composition with a plate-bound CAR-specific anti-idiotypic antibody (see, e.g., WO2018/023100) or during co-culture with CD19-expressing cells was then assessed.
Approximately 20,000 cells of the combined CAR-T cell composition were stimulated with 3 μg/ml or 30 μg/ml plate-bound CAR-specific anti-idiotypic antibody in the presence of Compound 17. After a 48-hour stimulation, T cells were surface stained with antibodies for various activation and differentiation markers and analyzed by flow cytometry for the percent of cells positive for the assessed markers (% positive) and for mean fluorescence intensity (MFI) of expression for the assessed markers. […]

The subject of data set [4] is CAR-expressing T cells. The data set can be described thus: Chronic stimulation assay, rescue treatment: tumor cell numbers, spheroid volume and cytokines during re-challenge of chronically stimulated CAR-expressing T cells (FIGS. 7A-8B). The class given is cell-based, human.
Excerpt: FIGS. 7A-7B and 8A-8B show cytolytic activity and cytokine production during re-challenge in the presence of Compound 17 of chronically stimulated CAR-expressing T cells (rescue treatment).
as §1

Data set [5] has as its system CAR-expressing T cells. The data set can be described thus: Chronic stimulation assay, concurrent treatment: tumor cell numbers, spheroid volume and cytokines during re-challenge of CAR-expressing T cells (FIGS. 5A-6B). The class given is cell-based, human.
Excerpt: FIGS. 5A-5B and 6A-6B show cytolytic activity and cytokine production during re-challenge of CAR-expressing T cells chronically stimulated in the presence of Compound 17 (concurrent treatment).
as §1

The test system of data set [6] is engineered T cells for the T cell therapy. The data set is described as follows: In vivo anti-tumor effects and CAR T cell expansion/persistence with continuous DGKi dosing (summary of observations). From the text: Without wishing to be limited by a specific mechanism of action, the results shown herein are consistent with a finding that the continuous presence of the DGKi following T cell therapy administration may prevent or reduce exhaustion in T cells of the T cell therapy, thereby improving T cell anti-tumor activity and proliferative capacity following administration.

Data set [7] relates to Granta-519 cells. The data set can be described thus: Rescue treatment: cytolytic activity of chronically stimulated CAR-T cells, 2D, Granta-519. The class given is cell-based, human. Conditions: higher concentrations, 2D co-culture.
The test system of data set [8] is Raji-rFluc cells. The data set can be described thus: In vivo anti-tumor effect with lower CAR T cell dose, Raji-rFluc NSG mice (Example 7). On the procedure:
The in vivo anti-tumor effects of a continuous Compound 17 dosing regimen in combination with a lower dose of CD19-directed CAR T cells were assessed.
These doses of CAR-expressing T cells were not expected to achieve complete tumor rejection.

Setting [9] is: 48-hour stimulation, 3 or 30 μg/mL CAR-specific anti-idiotypic antibody.
[10] abbreviates: 0.3 or 0.6 mg/kg oral once daily Days 1-30 with 0.5×10^6 or 1×10^6 CAR T cells, vs CAR T cells alone.

With `CC[C@H]1CN([C@@H](CC)c2ccc(C(F)(F)F)cc2)[C@H](CC)CN1c1nc(=O)n(C)c2ccc(C#N)nc12` [Compound 17, 4-((2S,5R)-2,5-diethyl-4-((S)-1-(4-(trifluoromethyl)phenyl)propyl)piperazin-1-yl)-1-methyl-2-oxo-1,2-dihydropyrido[3,2-d]pyrimidine-6-carbonitrile], in data set [1], the “T cell function (cytokine production, cytotoxicity, expansion, proliferation, persistence)” value is “improves T cell function”. Besides, in data set [1] (chronic (long-term) stimulation), the “effect on T cell exhaustion” value was “reverse, delay, or prevent T cell exhaustion”. In addition, the “cytolytic activity of CAR T cells against A549.CD19 spheroids” value in data set [2] was “improved the cytolytic activity of CAR T cells against both A549.CD19 and Granta-519 tumor spheroids”. Besides, in data set [3] (setting [9]), the “expression of CD27 and CD62L” value is “decreased expression of CD27 and CD62L”; the “expression of CD69 and PD-1” value is “increased expression of CD69 and PD-1”. Also, in data set [3] (in particular 30 μg/mL CAR-specific anti-idiotypic antibody), the “effect on cell phenotype, dose dependence” value is reported as “dose-dependent”. Moreover, the “recovery of activity of exhausted T cells” value in data set [4] (chronically stimulated T cells exhibiting features of exhaustion) is reported as “able to recover activity or have their activity restored or partially restored”. In addition, in data set [4] (rescue treatment, later exposure), the “rescue of T cell function of exhausted T cells” value was “could rescue or restore T cell function, including cytokine production and cytolytic activity, of exhausted T cells”. Besides, the “effect of concurrent treatment on hypofunctionality upon rechallenge with antigen” value in data set [5] is “reversed activity and phenotypes associated with T cell hypofunctionality and preserved more effector function”. Moreover, the “in vivo anti-tumor effects” value in data set [6] (continuous dosing, at least once daily for a plurality of consecutive days, with engineered T cells) is on record as “improves in vivo anti-tumor effects”. In data set [6] (continuous presence of DGKi beginning on same day as T cell therapy), the “CAR T cell expansion and/or persistence” value is recorded as “can improve CAR T cell expansion and/or persistence, in particular that of CD4+ CAR T cells”. The “cytolytic activity of CAR T cells against Granta-519 cells” value in data set [7] was “improved the cytolytic activity of CAR T cells against K562.CD19 and Granta-519 cells”. Further, the “CAR T cell expansion and/or persistence” value in data set [8] (0.3 or 0.6 mg/kg oral once daily Days 1-30, all groups) is given as “increased CAR T cell expansion and/or persistence in all groups”. In data set [8] (setting [10]), the survival entry was “improved survival in all groups”, the tumor burden entry was “lowered tumor burden” and the “tumor suppression (tumor control index)” value is recorded as “enhanced tumor suppression in all groups”. Moreover, in data set [8] (0.5×10^6 CAR T cells + 0.3 mg/kg, relative to higher CAR T cell dose in combination with Compound 17), the “CAR T cell expansion, lower CAR T cell dose” value is recorded as “CAR T cell expansion was delayed”. Besides, the “circulating CAR T cell counts, lower CAR T cell dose” value in data set [8] (0.5×10^6 CAR T cells + 0.3 mg/kg, vs higher CAR T cell dose alone) is given as “later exceeded circulating CAR T cell counts for the group that received the higher CAR T cell dose alone”.
